Measurements from ChEMBL document CHEMBL1208714, “Dimeric cyclohexane-1,3-dione oximes inhibit wheat acetyl-CoA carboxylase and show anti-malarial activity” (Bioorg Med Chem Lett, 2010).
The source made the active and inactive calls. The rule behind the calls is not given here.

Tests used:
Plasmodium falciparum = experiment: Antimalarial activity against Plasmodium falciparum D10; type: functional, organism-based
[1] = system: acetyl-CoA carboxylase (Triticum aestivum); experiment: Inhibition of wheat ACC at 20 uM
[2] = Inhibition of maize ACC; set-up: species or system Zea mays

Row | IC50 (Plasmodium falciparum) [µM] | Compound | inhibition [1] | IC50 [2] [µM]
1 | > 10 | CCO/N=C(\CC)C1=C(O)CC(c2c(C)cc(C)c(C(C)=O)c2C)CC1=O (stereo not drawn) | – | –
2 | 6 | CCO/N=C(\CC)C1=C(O)CC(c2ccc(C3CC(=O)C(/C(CC)=N/OCC)=C(O)C3)cc2)CC1=O (stereo not drawn) | Active | –
3 | 12 | CCO/N=C(\C)C1=C(O)CC(c2ccc(C3CC(=O)C(/C(C)=N/OCC)=C(O)C3)cc2)CC1=O (stereo not drawn) | – | –
4 | 5 | CCC/C(=N\OCC)C1=C(O)CC(c2ccc(C3CC(=O)C(/C(CCC)=N/OCC)=C(O)C3)cc2)CC1=O (stereo not drawn) | – | –
5 | 3 | CCO/N=C(\CC)C1=C(O)CC(c2cccc(C3CC(=O)C(/C(CC)=N/OCC)=C(O)C3)c2)CC1=O (stereo not drawn) | – | –
6 | 2.5 | C=CCO/N=C(\CCC)C1=C(O)CC(c2cccc(C3CC(=O)C(/C(CCC)=N/OCC=C)=C(O)C3)c2)CC1=O (stereo not drawn) | – | –
7 | 12.5 | CCC/C(=N\OCc1ccccc1)C1=C(O)CC(c2cccc(C3CC(=O)C(/C(CCC)=N/OCc4ccccc4)=C(O)C3)c2)CC1=O (stereo not drawn) | – | –
8 | 25 | CCC/C(=N\OC(c1ccccc1)c1ccccc1)C1=C(O)CC(c2cccc(C3CC(=O)C(/C(CCC)=N/OC(c4ccccc4)c4ccccc4)=C(O)C3)c2)CC1=O (stereo not drawn) | – | –
9 | 4 | CCC/C(=N\OCC)C1=C(O)CC(c2cccc(C3CC(=O)C(/C(CCC)=N/OCC)=C(O)C3)c2)CC1=O (stereo not drawn) | – | –
10 | > 100 | CCOC(=O)C(C)Oc1ccc(Oc2cnc3cc(Cl)ccc3n2)cc1 (stereo not drawn) [QUIZALOFOP ETHYL ESTER] | – | > 1

Row | Compound | IC50 (Plasmodium falciparum) [µM] | inhibition [1] | IC50 [2] [µM]
11 | CCCC(=O)c1c(C)cc(C)c(C2CC(=O)C(/C(CC)=N/OCC)=C(O)C2)c1C (stereo not drawn) [BUTROXYDIM] | 10 | Active | 0.3
12 | CCSC(C)CC1CC(=O)C(/C(CC)=N/OC/C=C/Cl)=C(O)C1 (stereo not drawn) [CLETHODIM] | > 250 | – | 0.02
13 | CC(Oc1ccc(Oc2cnc3cc(Cl)ccc3n2)cc1)C(=O)O (stereo not drawn) [QUIZALOFOP] | > 100 | – | 0.016
14 | CC/C(=N\OC/C=C/Cl)C1=C(O)CC(C2CCOCC2)CC1=O (stereo not drawn) [TEPRALOXYDIM] | > 100 | – | 0.7
15 | CCO/N=C(\CC)C1=C(O)CC(c2c(C)cc(C)cc2C)CC1=O (stereo not drawn) [TRALKOXYDIM] | > 100 | – | 0.52
